{"source": "patent US20080249113A1", "about": "“Fungicidal Mixtures” (priority 2004, published 2008)", "assay_type_in_all_cases": "in vivo", "key": {"Alternaria solani": {"system": "Alternaria solani", "test": "Use Example 5: early blight of tomato caused by Alternaria solani, synergism test (Abbot efficacy, Colby)", "settings": "individual active compound; for pest or weed control at 4 ppm: 4 ppm in the spray liquor", "procedure": "(§1) For use examples 3 to 9, the active compounds, separately or jointly, were prepared as a stock solution comprising 0.25% by weight of active compound in acetone or DMSO. 1% by weight of the emulsifier Uniperol® EL (wetter having emulsifying and dispersant action based on ethoxylated alkylphenols) was added to this solution, and the mixture was diluted with water to the desired concentration.\n(§2) The active compounds fosetyl-AI, epoxiconazole, triticonazole and pyraclostrobin were applied in their commercial formulation.\nLeaves of potted plants of the cultivar “Goldene Königin” were sprayed to run off point with an aqueous suspension having the active compound concentration stated below. The next day, the leaves were infected with an aqueous spore suspension of Alternaria solani in a 2% strength biomalt solution having a density of 0.17×10^6 spores/ml. The plants were then placed in a water vapor-saturated chamber at temperatures between 20 and 22° C. After 5 days, the disease on the untreated but infected control plants had developed to such an extent that the infection could be determined visually in %.\nA further test according to use example 3 was evaluated as follows:\n(§3) The visually determined percentages of infected leaf areas were converted into efficacies in % of the untreated control:\n(§4) The efficacy (E) is calculated as follows using Abbot's formula: […]\n(§5) α corresponds to the fungicidal infection of the treated plants in % and β corresponds to the fungicidal infection of the untreated (control) plants in %\n(§6) […]; The expected efficacies of mixtures of active compounds were determined using Colby's formula (Colby, S.R. “Calculating synergistic and antagonistic responses of herbicide combinations”, Weeds, 15, 20-22, 1967) and compared with the observed efficacies.\n(§7) E=x+y−x·y/100 • E expected efficacy, expressed in % of the untreated control, when using the mixture of the active compounds A and B at the concentrations a and b • x efficacy, expressed in % of the untreated control, when using the active compound A at the concentration a • y efficacy, expressed in % of the untreated control, when using the active compound B at the concentration b"}, "Puccinia recondita": {"system": "Puccinia recondita", "test": "Use Example 6: protective activity against Puccinia recondita on wheat (brown rust of wheat)", "settings": "individual active compound", "procedure": "as §1, §2, §3, §4, §5, §6, §7\nLeaves of potted wheat seedlings of the cultivar “Kanzler” were sprayed to run off point with an aqueous suspension having the active compound concentration stated below. The next day, the treated plants were inoculated with a spore suspension of brown rust of wheat (Puccinia recondite). The plants were then placed in a chamber with high atmospheric humidity (90 to 95%) at 20 to 22° C. for 24 hours. During this time, the spores germinated and the germ tubes penetrated into the leaf tissue. The next day, the test plants were returned to the greenhouse and cultivated at temperatures between 20 and 22° C. and 65 to 70% relative atmospheric humidity for a further 7 days. The extent of the rust fungus development on the leaves was then determined visually."}, "Pyrenophora teres": {"system": "Pyrenophora teres", "test": "Use Example 7: net blotch of barley caused by Pyrenophora teres, 1 day protective application, synergism test", "settings": "individual active compound", "procedure": "as §1\nLeaves of potted barley seedlings were sprayed to run off with an aqueous suspension having the active compound concentration stated below. 24 hours after the spray coating had dried on, the test plants were inoculated with an aqueous spore suspension of Pyrenophora [syn. Drechslera ] teres, the net blotch pathogen. The test plants were then placed in a greenhouse at temperatures between 20 and 24° C. and 95 to 100% relative atmospheric humidity. After 6 days, the extent of the development of the disease was determined visually in % infection of the entire leaf area.\nas §3, §4, §5, §6, §7\nIn a further test according to use example 4, the following results were obtained: […]"}, "[1]": {"settings": "Alternaria solani, 120 h, read-out: Efficacy in % of the untreated control"}, "[2]": {"settings": "Alternaria solani, 120 h, 16 ppm in the spray liquor, read-out: Efficacy in % of the untreated control"}, "[3]": {"settings": "Alternaria solani, 120 h, 63 ppm in the spray liquor, read-out: Efficacy in % of the untreated control"}}, "data": [{"molecule": "manganese ethylenebis(dithiocarbamate) zinc complex [mancozeb]", "values": [{"measurement": "Efficacy in % of the untreated control", "setting": "Alternaria solani; 16 ppm in the spray liquor", "value": 0, "unit": "%"}, {"measurement": "Efficacy in % of the untreated control", "setting": "Alternaria solani; 63 ppm in the spray liquor", "value": 0, "unit": "%"}, {"measurement": "Efficacy in % of the untreated control", "setting": "Puccinia recondita; 16 ppm in the spray liquor", "value": 0, "unit": "%"}, {"measurement": "Efficacy in % of the untreated control", "setting": "Puccinia recondita; 63 ppm in the spray liquor", "value": 0, "unit": "%"}]}, {"molecule": "CC1(C)CCC(=Cc2ccc(Cl)cc2)C1(O)Cn1cncn1", "note": "(centres unmarked) [triticonazole, 5-(4-chlorobenzylidene)-2,2-dimethyl-1-[1,2,4]triazol-1-ylmethylcyclo-pentanol]", "values": [{"measurement": "pest or weed control at 4 ppm", "setting": "Alternaria solani; [1]", "value": 0, "unit": "%"}]}, {"molecule": "OC(Cc1ccccc1Cl)(Cn1nc[nH]c1=S)C1(Cl)CC1", "note": "(centres unmarked) [prothioconazole, 2-[2-(1-chlorocyclopropyl)-3-(2-chlorophenyl)-2-hydroxypropyl]-2,4-dihydro-[1,2,4]triazole-3-thione]", "values": [{"measurement": "pest or weed control at 4 ppm", "setting": "Alternaria solani; [1]", "value": 22, "unit": "%"}]}, {"molecule": "Cc1cc(C)nc(Nc2ccccc2)n1", "note": "[pyrimethanil, 4,6-dimethylpyrimidin-2-ylphenylamine]", "values": [{"measurement": "Efficacy in % of the untreated control", "setting": "Puccinia recondita; 16 ppm in the spray liquor", "value": 0, "unit": "%"}]}, {"molecule": "COCC(=O)N(c1c(C)cccc1C)C(C)C(=O)OC", "note": "(racemic) [metalaxyl, methyl N-(methoxyacetyl)-N-(2,6-xylyl)-DL-alaninate]", "values": [{"measurement": "pest or weed control at 4 ppm", "setting": "Alternaria solani; [1]", "value": 0, "unit": "%"}]}, {"molecule": "Cc1ccc(-c2c(Cl)nc(C#N)n2S(=O)(=O)N(C)C)cc1", "note": "[cyazofamid, 4-chloro-2-cyano-N,N-dimethyl-5-p-tolylimidazole-1-sulfonamide]", "values": [{"measurement": "pest or weed control at 16 ppm", "setting": "Alternaria solani; [2]", "value": 0, "unit": "%"}, {"measurement": "pest or weed control at 63 ppm", "setting": "Alternaria solani; [3]", "value": 0, "unit": "%"}, {"measurement": "pest or weed control at 250 ppm", "setting": "Alternaria solani; Alternaria solani, 120 h, 250 ppm in the spray liquor, read-out: Efficacy in % of the untreated control", "value": 0, "unit": "%"}]}, {"molecule": "COc1ccc(C(=CC(=O)N2CCOCC2)c2ccc(Cl)cc2)cc1OC", "note": "[dimethomorph, 3-(4-chlorophenyl)-3-(3,4-dimethoxyphenyl)-1-morpholin-4-ylpropenone]", "values": [{"measurement": "Efficacy in % of the untreated control", "setting": "Puccinia recondita; 16 ppm in the spray liquor", "value": 0, "unit": "%"}, {"measurement": "Efficacy in % of the untreated control", "setting": "Puccinia recondita; 63 ppm in the spray liquor", "value": 0, "unit": "%"}]}, {"molecule": "CO/N=C(/C(=O)OC)c1ccccc1COc1ccccc1C", "note": "[kresoxim-methyl, methyl (E)-methoxyimino[α-(otolyloxy)-otolyl]acetate]", "values": [{"measurement": "Efficacy in % of the untreated control", "setting": "Puccinia recondita; 1 ppm in the spray liquor", "value": 0, "unit": "%"}, {"measurement": "Efficacy in % of the untreated control", "setting": "Puccinia recondita; 4 ppm in the spray liquor", "value": 0, "unit": "%"}]}, {"molecule": "O=C(Nc1ccccc1-c1ccc(Cl)cc1)c1cccnc1Cl", "note": "[boscalid, 2-chloro-N-(4′-chlorobiphenyl-2-yl)nicotinamide]", "values": [{"measurement": "pest or weed control at 16 ppm", "setting": "Alternaria solani; [2]", "value": 22, "unit": "%"}]}, {"molecule": "Fc1ccc([C@]2(Cn3cncn3)O[C@H]2c2ccccc2Cl)cc1", "note": "(racemic) [epoxiconazole, (2RS, 3SR)-1-[3-(2-chlorophenyl)-2,3-epoxy-2-(4-fluorophenyl)propyl]-1H-1,2,4-triazole]", "values": [{"measurement": "pest or weed control at 4 ppm", "setting": "Alternaria solani; [1]", "value": 56, "unit": "%"}]}, {"molecule": "O=C1c2ccccc2C(=O)N1SC(Cl)(Cl)Cl", "note": "[folpet, 2-trichloromethylsulfanylisoindole-1,3-dione]", "values": [{"measurement": "pest or weed control at 63 ppm", "setting": "Alternaria solani; [3]", "value": 0, "unit": "%"}]}, {"molecule": "Cc1ccccc1-c1c(Cl)nc2ncnn2c1N1CCC(C)CC1", "note": "[Compound A-31, 5-chloro-6-(2-methylphenyl)-7-(4-methylpiperidin-1-yl)-1,2,4-triazolo[1,5a]pyrimidine]", "values": [{"measurement": "Efficacy in % of the untreated control", "setting": "Alternaria solani; 63 ppm in the spray liquor", "value": 78, "unit": "%"}, {"measurement": "Efficacy in % of the untreated control", "setting": "Pyrenophora teres; 16 ppm in the spray liquor", "value": 33, "unit": "%"}, {"measurement": "Efficacy in % of the untreated control", "setting": "Pyrenophora teres; 63 ppm in the spray liquor", "value": 67, "unit": "%"}, {"measurement": "Efficacy in % of the untreated control", "setting": "Puccinia recondita; 16 ppm in the spray liquor", "value": 22, "unit": "%"}]}, {"molecule": "CC(Cc1ccc(C(C)(C)C)cc1)CN1CC(C)OC(C)C1", "note": "(centres unmarked) [fenpropimorph, 4-[3-(4-tert-butylphenyl)-2-methylpropyl]-2,6-dimethylmorpholine]", "values": [{"measurement": "Efficacy in % of the untreated control", "setting": "Puccinia recondita; 16 ppm in the spray liquor", "value": 0, "unit": "%"}, {"measurement": "Efficacy in % of the untreated control", "setting": "Puccinia recondita; 63 ppm in the spray liquor", "value": 0, "unit": "%"}]}, {"molecule": "N#Cc1c(Cl)c(Cl)c(Cl)c(C#N)c1Cl", "note": "[chlorothalonil, 2,4,5,6-tetrachloroisophthalonitrile]", "values": [{"measurement": "pest or weed control at 63 ppm", "setting": "Alternaria solani; [3]", "value": 0, "unit": "%"}, {"measurement": "Efficacy in % of the untreated control", "setting": "Puccinia recondita; 16 ppm in the spray liquor", "value": 17, "unit": "%"}]}, {"molecule": "CCCN(CCOc1c(Cl)cc(Cl)cc1Cl)C(=O)n1ccnc1", "note": "[prochloraz, N-propyl-N-[2-(2,4,6-trichlorophenoxy)ethyl]imidazole-1-carboxamide]", "values": [{"measurement": "Efficacy in % of the untreated control", "setting": "Puccinia recondita; 4 ppm in the spray liquor", "value": 0, "unit": "%"}, {"measurement": "Efficacy in % of the untreated control", "setting": "Puccinia recondita; 16 ppm in the spray liquor", "value": 0, "unit": "%"}]}, {"molecule": "N#Cc1sc2c(=O)c3ccccc3c(=O)c=2sc1C#N", "note": "[dithianon, 5,10-dioxo-5,10-dihydronaphtho[2,3-b][1,4]dithiine-2,3-dicarbonitrile]", "values": [{"measurement": "Efficacy in % of the untreated control", "setting": "Pyrenophora teres; 16 ppm in the spray liquor", "value": 0, "unit": "%"}]}]}
